Measured values published in patent publication US20070082930A1, “Pharmaceutical composition comprising a p2x7 receptor antagonist and a nonsteroidal anti-inflammatory drug” (ASTRAZENECA AB, priority 2003, published 2007).

Tested on: streptococcal cell wall-induced arthritis
Assay: Rat streptococcal cell wall (SCW)-induced arthritis: ankle swelling and von Frey mechanical threshold
Format: in vivo
Details: oral bid, P2X7 antagonist 1 30 mg/kg
Source text: Assessment of Anti-Inflammatory Activity of the COX-2 Inhibitor, Celecoxib/P2X7 Antagonist Combinations in Rat Streptococcal Cell Wall-Induced Arthritis.^1 1. Experimental procedure based on that described by Carlson R P, Jacobsen P B, ‘Comparison of adjuvant and streptococcal cell wall-induced arthritis in the rat’in Morgan D W, Marshall L A, editors; In Vivo Models of Inflammation. Basel: Birkhauser Verlag; 1999.
Streptococcal cell wall (SCW)-induced arthritis was induced in the left ankle of female Lewis rats. Animals were sensitised by intra-articular injection of 5 μg (in 20 μL) SCW (Lee Laboratories) into the left ankle. Ankle swelling was assessed 3 days after injection and non-responders (animals with no apparent ankle swelling) were rejected. Responding animals were randomly allocated to the test groups.
Arthritis was induced 21 days after sensitisation by intravenous (iv) injection of SCW (100 μg in 500 μL saline). Animals were monitored and assessed on a daily basis through to term-ination 6 days after induction. The rats were housed on sawdust and provided with food and water ad libitum.
In this example the P2X7 antagonist 1 was orally dosed at 30 mg/kg (4 mL/kg, bid). The compound was dosed as a suspension in 1% (w/v) methylcellulose in deionised water and was freshly prepared on a daily basis. Dosing commenced 1 day prior to induction of arthriis and continued on a daily basis through to termination on day 6 post-induction. Celecoxib (3 mg/kg) was dosed orally under the same regime as for P2X7 antagonist 1, administration of celecoxib occurring immediately after administration of P2X7 antagonist 1.
Ankle diameters were measured with vernier callipers on a daily basis from day −1. Mechanical thresholds were assessed using von Frey filaments on days −1, 1, 3 and 5. The filaments were applied in increasing weights to the ankle region on the footpad of both feet. The first filament to induce a withdrawal response was considered to be the threshold.
Effects on ankle swelling and mechanical threshold were calculated on an area under the curve (AUC) basis, as the sum of the differences from individual day −1 values. The size. and direction of the interaction was calculated and data analysis performed by ANOVA followed by Dunnett's test on the AUC data (SAS version 8.01).
The anti-inflammatory activity of the COX-2 inhibitor, rofecoxib in combination with a P2X7 antagonist was assesesd using the protocol described in Example 3A. The P2X7 antagonist 1 was dosed orally at 30 mg/kg (4 mL/kg, bid) as a suspension in 1% (w/v) methylcellulose in deionised water, together with rofecoxib (Merck Sharp & Dohme Limited) (1 mg/kg) in a single formulation. Dosing commenced 1 day prior to induction of arthritis and continued on a daily baisis through to termination on day 6 post-induction.
The anti-inflammatory activity of the COX-2 inhibitor, valdecoxib in combination with a P2X7 antagonist was assesesd using the protocol described in Example 3A. The P2X7 antagonist 1 was orally dosed at 30 mg/kg (4 mL/kg, bid) as a suspension in 1% (w/v) methylcellulose in deionised water, together with valdecoxib (Pfizer) (1 mg/kg) in a single formulation. Dosing commenced 1 day prior to induction of arthritis and continued on a daily baisis through to termination on day 6 post-induction.

[1] = Example 3A, female Lewis rats, day -1 to day 6 post-induction, celecoxib 3 mg/kg, given one immediately after the other
[2] = Example 3B, day -1 to day 6, rofecoxib 1 mg/kg, single formulation
[3] = Example 3C, day -1 to day 6, valdecoxib 1 mg/kg, single formulation

SMILES | % reduction of AUC (compared to arthritic vehicle control) Ankle swelling [1] | % reduction of AUC (compared to arthritic vehicle control) Von Frey threshold [1] | % reduction of AUC (compared to arthritic vehicle control) Ankle swelling [2] | % reduction of AUC (compared to arthritic vehicle control) Von Frey threshold [2] | % reduction of AUC (compared to arthritic vehicle control) Ankle swelling [3] | % reduction of AUC (compared to arthritic vehicle control) Von Frey threshold [3]
Cc1ccc(-c2cc(C(F)(F)F)nn2-c2ccc(S(N)(=O)=O)cc2)cc1 [Celecoxib, 4-[5-(4-methylphenyl)-3-(trifluoromethyl)-1H-pyrazol-1-yl]benzenesulfonamide] | 63.0 ± 3.9 % | 43.2 ± 15.9 % | – | – | – | –
Cc1ccc(C(=O)N2CC3CNCC(C2)O3)cc1NC(=O)CC12CC3CC(CC(C3)C1)C2.Cl [P2X7 antagonist 1, N-[2-Methyl-5-(9-oxa-3,7-diazabicyclo[3.3.1]non-3-ylcarbonyl)phenyl]-tricyclo[3.3.1.1^3,7]decane-1-acetamide, hydrochloride] | 28.5 ± 13.5% | 21.1 ± 10.9% | 2.6 ± 11.6% | 26.5 ± 11.4% | 2.6 ± 11.6% | 26.5 ± 11.4%
CS(=O)(=O)c1ccc(C2=C(c3ccccc3)C(=O)OC2)cc1 [Rofecoxib, 4-[4′-(methylsulfonyl)phenyl]-3-phenyl-(5H)-furanone] | – | – | 50.6 ± 4.7 % | 29.8 ± 7.8 % | – | –
Cc1onc(-c2ccccc2)c1-c1ccc(S(N)(=O)=O)cc1 [Valdecoxib, 4-(5-methyl-3-phenyl-4-isoxazolyl)benzenesulfonamide] | – | – | – | – | 52.8 ± 3.1 % | 37.8 ± 8.6 %
